From patent US20220362386A1, “LIQUID COMPOSITIONS COMPRISING A LEVODOPA AMINO ACID CONJUGATE AND USES THEREOF” (NeuroDerm, Ltd., priority 2019, published 2022)
Where a name gives a salt, the structure may show the parent alone. Read-outs that look alike come from different tables or passages of the source. Blank lines part the entries; values can stand above or below the molecule they belong to. Non-standard residues stand in square brackets, D forms with d. Residues, ends and D or L forms follow the SMILES beside them. Dopa = N[C@@H](Cc1ccc(O)c(O)c1)C(=O)O

How the values were obtained:
Caco-2 cells [1] = assay: in vitro; settings: Caco-2
Caco-2 cells [2] = assay: In-vitro absorption, Caco-2 A-B permeability; assay type: in vitro ADME, human; settings: Caco-2 A-B; both with and without verapamil
Protocol: Conditions may be adjusted when necessary.
D denotes donor and R is receiver. […] V is the volume of the donor or receiver.
The test was performed with and without verapamil, which is a permeation inhibitor, and the results are presented in Tables 22 (without verapamil) and 34 (with verapamil).

physchem = assay type: physicochemical; settings: for solubility thermodynamic: read-out: LD-Lys TFA salt concentration
Protocol: The volume of the solution in the bottle was adjusted to 5 ml, either by adding solvent, or be removing any residual solution, after which the bottle was tightly closed and left at 25° C. for stability observation. It is noted that throughout Example 4, the concentrations in the tables below were calculated taking into account the amount of solvent added or the solution removed, in which event, the calculations were performed regarding the 5 ml+(amount removed) as the volume of the solution. It is further noted that throughout this document, unless mentioned otherwise, the stability was measured using the manual visual inspection Bosch apparatus MIH DX, at a magnification of ×1.75.
(§1) The LD-Tyr free base, prepared according to Example 2, was added to a solvent, as detailed in Table 7 below, and neutralized by addition of NaOH. When maximum solubility was observed, the solution was filtered and then transferred to a bottle that was previously weighed and flushed with nitrogen. The volume of the solution in the bottle was adjusted to 5 ml, after which the bottle was tightly closed and left at 25° C. for stability observation.
(§2) When maximum solubility was observed, the solution was filtered and then transferred to a bottle that was previously weighed and flushed with nitrogen. The volume of the solution in the bottle was adjusted to 5 ml, after which the bottle was tightly closed and left at 25° C. for stability observation.
as §2, with “stored” for “left”
as §2, with “stored” for “left”
as §1, with “LD-Lys TFA salt,” for “The LD-Tyr free base,”, “1, and which comprises two equivalents of TFA,” for “2,”, “11” for “7”, “stored” for “left”
as §2, with “As detailed above regarding other solutions, with the LD-Tyr free base when” for “When”
as §1, with “LD-Lys HCl salt,” for “The LD-Tyr free base,”, “3,” for “2,”, “13” for “7”, “by the” for “by”

[3] = Human liver S9 stability test; assay type: in vitro ADME; settings: substrate 10 μM, S9 protein 0.2 mg/mL; for Ke: slope of the percentage decrease of remaining compound, 0-60 minutes
Protocol: The stability of several LDAA compounds, in their TFA salt form, in human liver S9 was tested using commercially available liver S9. The substrate concentration was 10 μM, the S9 protein concentration was 0.2 mg/mL, and the incubation time 0, 5, 15, 30 and 60 minutes.
The results are described in Table 18, wherein the results describe the Ke, i.e., the slope of the percentage decrease of the remaining amount of the compound, measured at each of the above time points, such that the higher the Ke the faster the metabolism.

[4] = Stability observation of the solubility solutions at 25° C. (visual inspection for precipitants); assay type: physicochemical; settings: 0.75% CD solution
Protocol: The volume of the solution in the bottle was adjusted to 5 ml, either by adding solvent, or be removing any residual solution, after which the bottle was tightly closed and left at 25° C. for stability observation. […] It is further noted that throughout this document, unless mentioned otherwise, the stability was measured using the manual visual inspection Bosch apparatus MIH DX, at a magnification of ×1.75.

[5] = solvent 0.1% NaBis in WFI, pH 1.8
[6] = solvent 0.1% NaBis in WFI, pH 6.92
[7] = solvent 0.1% NaBis in WFI, pH 6.99
[8] = solvent 0.1% NaBis in WFI, pH 7.06
[9] = solvent […] CD solution, pH 8.48
[10] = solvent 0.75% CD solution, pH 6.5, precipitated
[11] = solvent 0.75% CD solution, pH 7.4 (line r20)
[12] = solvent 0.75% CD solution, pH 7.4, precipitated (line r14)
[13] = solvent […] CD solution, pH 8.36
[14] = solvent DMSO:(0.1% NaBis in WFI) (70:30), pH 5.40
[15] = solvent NMP:(0.1% NaBis in WFI) (70:30), pH 4.62
[16] = solvent […] CD solution in WFI, pH 8.35 (titer/NaOH)

Compound: N=C(N)NCCC[C@H](NC(=O)[C@@H](N)Cc1ccc(O)c(O)c1)C(=O)O [LD-Arg TFA salt, Levodopa Arginine TFA Salt]
- Appearance (physchem; 0.1% NaBis in WFI, pH 1.8, 610 mg/ml salt): clear
- Appearance (physchem; 0.1% NaBis in WFI, pH 6.92, 200 mg/ml salt): clear
- Appearance (physchem; 0.1% NaBis in WFI, pH 6.99, 420 mg/ml salt): clear
- Appearance (physchem; 0.1% NaBis in WFI, pH 7.06, 200 mg/ml salt): clear
- Appearance (physchem; WFI, pH 1.7, 600 mg/ml salt): clear
- Appearance (physchem; WFI, pH 7.2, 200 mg/ml salt): clear
- Appearance (physchem; WFI, pH 7.2, 420 mg/ml salt): clear
- Appearance (physchem; […] CD solution, pH 8.48, 180 mg/ml salt): clear
- LD-Arg TFA salt concentration (physchem; [5]): 610 mg/mL
- LD-Arg free base Concentration (physchem; [5]): 370 mg/mL
- LD-Arg TFA salt concentration (physchem; [6]): 200 mg/mL
- LD-Arg free base Concentration (physchem; [6]): 120 mg/mL
- LD-Arg TFA salt concentration (physchem; [7]): 420 mg/mL
- LD-Arg free base Concentration (physchem; [7]): 260 mg/mL
- LD-Arg TFA salt concentration (physchem; [8]): 200 mg/mL
- LD-Arg free base Concentration (physchem; [8]): 120 mg/mL
- LD-Arg TFA salt concentration (physchem; solvent WFI, pH 1.7): 600 mg/mL
- LD-Arg free base Concentration (physchem; solvent WFI, pH 1.7): 370 mg/mL
- LD-Arg TFA salt concentration (physchem; solvent WFI, pH 7.2 (line r9)): 420 mg/mL
- LD-Arg free base Concentration (physchem; solvent WFI, pH 7.2 (line r9)): 260 mg/mL
- LD-Arg TFA salt concentration (physchem; solvent WFI, pH 7.2 (line r17)): 200 mg/mL
- LD-Arg free base Concentration (physchem; solvent WFI, pH 7.2 (line r17)): 120 mg/mL
- LD-Arg TFA salt concentration (physchem; [9]): 180 mg/mL
- LD-Arg free base Concentration (physchem; [9]): 110 mg/mL
- Ke [3]: 0.1268
- metabolism in human liver S9 (in words) [3]: rapidly metabolized

Compound: NCCCC[C@H](NC(=O)[C@@H](N)Cc1ccc(O)c(O)c1)C(=O)O [LD-Lys TFA salt, Levodopa Lysine TFA Salt] (H-[Dopa]-Lys-OH)
- Appearance (physchem; 0.1% NaBis in WFI, pH 7.0, 520 mg/ml salt): clear
- Appearance (physchem; 0.75% CD solution, pH 6.5, 250 mg/ml salt): precipitated
- Appearance (physchem; 0.75% CD solution, pH 7.4, 205 mg/ml salt): clear
- Appearance (physchem; 0.75% CD solution, pH 7.4, 250 mg/ml salt): precipitated
- solubility thermodynamic (physchem; 25 °C, aqueous buffer, thermodynamic from solid, solvent 0.1% NaBis in WFI, pH 7.0): 520 mg/mL
- solubility thermodynamic (physchem; 25 °C, water, thermodynamic from solid, solvent WFI, pH 1.86): 770 mg/mL
- Appearance (physchem; WFI, pH 1.86, 770 mg/ml salt): clear
- Appearance (physchem; WFI, pH 7.1, 600 mg/ml salt): clear
- Appearance (physchem; […] CD solution, pH 8.36, 180 mg/ml salt): clear
- LD-Lys free base Concentration (physchem; solvent 0.1% NaBis in WFI, pH 7.0): 310 mg/mL
- LD-Lys TFA salt concentration (physchem; [10]): 250 mg/mL
- LD-Lys free base Concentration (physchem; [10]): 150 mg/mL
- LD-Lys TFA salt concentration (physchem; [11]): 205 mg/mL
- LD-Lys free base Concentration (physchem; [11]): 120 mg/mL
- LD-Lys TFA salt concentration (physchem; [12]): 250 mg/mL
- LD-Lys free base Concentration (physchem; [12]): 150 mg/mL
- LD-Lys free base Concentration (physchem; solvent WFI, pH 1.86): 450 mg/mL
- LD-Lys TFA salt concentration (physchem; solvent WFI, pH 7.1): 600 mg/mL
- LD-Lys free base Concentration (physchem; solvent WFI, pH 7.1): 350 mg/mL
- LD-Lys TFA salt concentration (physchem; [13]): 180 mg/mL
- LD-Lys free base Concentration (physchem; [13]): 110 mg/mL
- Ke [3]: 0.0788
- metabolism in human liver S9 (in words) [3]: rapidly metabolized
- Stability ([4]; pH 6.5, 250 mg/ml salt): Precipitated* (precipitated within 12 hours)
- Stability ([4]; pH 7.4, 250 mg/ml salt): Precipitated* (precipitated within 12 hours)

Compound: N[C@@H](Cc1ccc(O)c(O)c1)C(=O)N[C@@H](Cc1ccc(O)cc1)C(=O)O [LD-Tyr TFA salt, Levodopa Tyrosine TFA Salt] (H-[Dopa]-Tyr-OH)
- Appearance (physchem; 0.1% sodium bisulfite (Na Bis) in WFI, pH 7.22 (titer/NaOH), 205 mg/ml salt, TFA Salt): precipitated
- solubility (physchem; 0.1% sodium bisulfite in WFI, 25 °C, aqueous buffer, thermodynamic from solid, solvent 0.1% sodium bisulfite (Na Bis) in WFI, pH 7.22 (titer/NaOH), precipitated during titration): ≤ 205 mg/mL
- Appearance (physchem; DMSO:(0.1% NaBis in WFI) (70:30), pH 5.40, 200 mg/ml salt): clear
- Appearance (physchem; DMSO, 184 mg/ml salt): clear
- Appearance (physchem; NMP:(0.1% NaBis in WFI) (70:30), pH 4.62, 200 mg/ml salt): clear
- Appearance (physchem; NMP, 200 mg/ml salt): Clear
- Appearance (physchem; WFI, pH ~2, 210 mg/ml salt): clear
- Appearance (physchem; […] CD solution in WFI, pH 8.35, 178 mg/ml salt): clear
- LD-Tyr free base Concentration (physchem; solvent 0.1% sodium bisulfite (Na Bis) in WFI, pH 7.22 (titer/NaOH), precipitated during titration): 160 mg/mL
- LD-Tyr TFA salt concentration (physchem; solvent DMSO): 184 mg/mL
- LD-Tyr free base Concentration (physchem; solvent DMSO): 140 mg/mL
- LD-Tyr TFA salt concentration (physchem; [14]): 200 mg/mL
- LD-Tyr free base Concentration (physchem; [14]): 150 mg/mL
- LD-Tyr TFA salt concentration (physchem; solvent NMP): 200 mg/mL
- LD-Tyr free base Concentration (physchem; solvent NMP): 150 mg/mL
- LD-Tyr TFA salt concentration (physchem; [15]): 200 mg/mL
- LD-Tyr free base Concentration (physchem; [15]): 150 mg/mL
- LD-Tyr TFA salt concentration (physchem; solvent Water for injection (WFI), pH ~2): 210 mg/mL
- LD-Tyr free base Concentration (physchem; solvent Water for irrigation (WFI), pH ~2): 160 mg/mL
- LD-Tyr TFA salt concentration (physchem; [16]): 178 mg/mL
- LD-Tyr free base Concentration (physchem; [16]): 135 mg/mL
- Ke [3]: 0.0217
- metabolism in human liver S9 (in words) [3]: rapidly metabolized

Now from value to molecule:

- mean permeability compared with the other compounds (in words) (Caco-2 cells [1]): highest mean permeability
- mean permeability compared with the other compounds (in words) (Caco-2 cells [2]): highest mean permeability
Compound: N[C@@H](CSC[C@H](NC(=O)[C@@H](N)Cc1ccc(O)c(O)c1)C(=O)O)C(=O)O (single isomer, unassigned; peak 2) [LD-LA2 TFA salt, Levodopa Lanthionine Peak 2 TFA Salt]

- Ke [3]: 0.0015
Compound: NC(=O)C[C@H](NC(=O)[C@@H](N)Cc1ccc(O)c(O)c1)C(=O)O [LD-Asn TFA salt, Levodopa Asparagine TFA Salt] (H-[Dopa]-Asn-OH)

- Ke [3]: 0.0008
Compound: N[C@@H](Cc1ccc(O)c(O)c1)C(=O)N[C@@H](CC(=O)O)C(=O)O [LD-Asp TFA salt, Levodopa Aspartic Acid] (H-[Dopa]-Asp-OH)
